ChEMBL document CHEMBL1156518, “A mouse model for nonsense mutation bypass therapy shows a dramatic multiday response to geneticin” (Proc Natl Acad Sci U S A, 2007)
Activity calls are given as the source filed them. The calls are words filed in the database; no cut-off is given here.

What was measured:
Mus musculus [1] = assay: Increase in human F9 nonsense R338X mutant antigen coagulant activity in C57B/6J mouse plasma at 28 mg/kg, sc administered daily for 2 days after 2 hrs; format: functional; conditions: route subcutaneous
Mus musculus [2] = assay: Increase in human F9 nonsense R338X mutant antigen level per 100 ul of plasma in C57B/6J mouse model at 28 mg/kg, sc administered daily for 2 days after 9 hrs by ELISA; format: functional; conditions: route subcutaneous
Mus musculus [3] = assay: Increase in human F9 nonsense R338X mutant antigen coagulant activity in C57B/6J mouse plasma at 28 mg/kg, sc administered daily for 7 days after 9 hrs by ELISA
Mus musculus [4] = assay: Increase in human F9 nonsense R338X mutant antigen level per 100 ul of plasma in C57B/6J mouse model at 14 mg/kg, sc administered daily for 2 days after 2 hrs by ELISA; format: functional; conditions: route subcutaneous
Mus musculus [5] = assay: Increase in human F9 nonsense R338X mutant antigen coagulant activity in C57B/6J mouse plasma at 28 mg/kg, sc administered daily for 7 days after 9 hrs by ELISA; format: functional; conditions: route subcutaneous
Mus musculus [6] = assay: Increase in human F9 nonsense R338X mutant antigen coagulant activity in C57B/6J mouse plasma at 14 mg/kg, sc administered daily for 2 days after 2 hrs; format: functional; conditions: route subcutaneous
Mus musculus [7] = assay: Increase in human F9 nonsense R338X mutant antigen coagulant activity in C57B/6J mouse plasma at 28 mg/kg, sc administered daily for 7 days after 3 hrs by ELISA; conditions: route subcutaneous
Mus musculus [8] = assay: Increase in human F9 nonsense R338X mutant antigen level per 100 ul of plasma in C57B/6J mouse model at 28 mg/kg, sc administered daily for 2 days after 2 hrs by ELISA; format: functional; conditions: route subcutaneous
Mus musculus [9] = assay: Increase in human F9 nonsense R338X mutant antigen coagulant activity in C57B/6J mouse plasma at 28 mg/kg, sc administered daily for 2 days after 9 hrs; format: functional; conditions: route subcutaneous
[10] = Toxicity in C57BL/6J hemophilia B mouse model at 28 mg/kg, sc; format: organism-based; design: dose 28 mg/kg, route subcutaneous; conditions: in vivo
Mus musculus [11] = assay: Increase in human F9 nonsense R338X mutant antigen level per 100 ul of plasma in C57B/6J mouse model at 7 mg/kg, sc administered daily for 2 days after 2 hrs by ELISA; format: functional; conditions: route subcutaneous
[12] = Half life in C57BL/6J hemophilia B mouse model at 28 mg/kg, sc for 2 days; format: ADME, organism-based; design: dose 28 mg/kg, route subcutaneous; conditions: in vivo
[13] = Elimination half life in C57BL/6J hemophilia B mouse model liver at 28 mg/kg, sc for 2 days; format: ADME, organism-based; design: dose 28 mg/kg, route subcutaneous
Mus musculus [14] = assay: Increase in human F9 nonsense R338X mutant antigen coagulant activity in C57B/6J mouse plasma at 42 mg/kg, sc administered daily for 2 days after 9 hrs; format: functional; conditions: route subcutaneous
Mus musculus [15] = assay: Increase in human F9 nonsense R338X mutant antigen level per 100 ul of plasma in C57B/6J mouse model at 42 mg/kg, sc administered daily for 2 days after 9 hrs by ELISA; format: functional; conditions: route subcutaneous
Mus musculus [16] = assay: Increase in human F9 nonsense R338X mutant antigen coagulant activity in C57B/6J mouse plasma at 7 mg/kg, sc administered daily for 2 days after 2 hrs; format: functional; conditions: route subcutaneous

For CN[C@@H]1[C@@H](O)[C@@H](O[C@@H]2[C@@H](O)[C@H](O[C@H]3O[C@H]([C@@H](C)O)[C@@H](O)[C@H](O)[C@H]3N)[C@@H](N)C[C@H]2N)OC[C@]1(C)O [GENETICIN], the Activity (Mus musculus [1]) was 6.94%, the Activity (Mus musculus [2]) was 27.28 ng and the Activity (Mus musculus [3]) was “Active”. It also gave an Activity (Mus musculus [4]) of 5.79 ng, an Activity (Mus musculus [5]) of 43.9 ng and an Activity (Mus musculus [6]) of 6.18%. For the same molecule, the Activity (Mus musculus [7]) was 22.8 ng, the Activity (Mus musculus [8]) was 8.75 ng and the Activity (Mus musculus [9]) was 8.03%. It also gave an LD50 [10] of 1300 mg/kg, an Activity (Mus musculus [11]) of 2.28 ng and a half-life [12] of 0.25 h. It also gave a half-life [13] of 80 h, an Activity (Mus musculus [14]) of 4.98% and an Activity (Mus musculus [15]) of 13.57 ng. For the same molecule, the Activity (Mus musculus [16]) was 4.55%.
